Results on one compound are retold here after paper PMC11505029, “Isatin Bis-Imidathiazole Hybrids Identified as FtsZ Inhibitors with On-Target Activity Against Staphylococcus aureus” (Antibiotics, 2024).

Entries after “also recorded” stand apart in the source; their conditions may differ.

The subject of one data set is S. aureus ATCC 25923. Briefly: broth microdilution antimicrobial activity, S. aureus reference strain. Format: cell-based, Staphylococcus aureus. The procedure: (§1) Reference bacterial strains of Staphylococcus aureus (ATCC 25923), Escherichia coli (ATCC 25922), and Candida albicans (ATCC 10231) were used in this study as Gram-positive, Gram-negative, and fungal models, respectively. These reference strains were purchased from the American Type Culture Collection (ATCC, Manassas, VA, USA); bacterial cultures were routinely grown at 37 °C on 5% blood agar plate, while fungal cultures on Sabouraud Dextrose Agar (Biolife Italiana S.r.l., Milan, Italy).
(§2) The dry powder of the isatin derivatives was resuspended in dimethylsulfoxide (DMSO) at 20 mM and used as stock solutions. For biological investigations, compounds were used in the range 100–0.78 µM, and the solvent in the corresponding percentage range.
(§3) The antimicrobial activity of the compounds was assessed by a well-established broth microdilution procedure in microtiter plates and in compliance with the Clinical and laboratory Standard Institute (CLSI) guidelines (Clinical and Laboratory Standards Institute, Wayne, PA, USA). In short, microbial inocula were prepared at 0.5 McFarland in PBS and, subsequently, bacterial suspensions were diluted 1:200 in Mueller–Hinton broth (Sigma-Aldrich, St. Louis, MO, USA), while fungal inoculum was diluted 1:20 in RPMI-1640 medium (Gibco®, ThermoFisher Scientific Inc., Waltham, MA, USA), containing 2% glucose and 0.3% levo-glutamine buffered to pH 7.0 with 0.165 M 3-(N-morpholino)propanesulfonic acid (MOPS). A total of 100 µL of these microbial suspensions were introduced in a 96-well microplate and incubated with 100 µL of the compounds, two-fold serially diluted in the range of 100–0.19 µM. Positive controls (microbial suspensions in regular media), negative controls (only compounds), and solvent controls (microbial suspensions incubated with DMSO dilutions) were included in the tests. The plate was incubated at 37 °C for 24 h, and subsequently, the optical density at 630 nm (OD630nm) was spectrophotometrically measured. Each experiment was carried out with three technical replicates (i.e., three wells per sample) and repeated at least two times for statistical power. […] IC50 values, corresponding to the concentration of the compound giving rise to an inhibition of growth of 50%, were obtained by interpolation on dose–response curves generated by plotting the percentages of growth inhibition, relative to the positive control (set to 100% of growth), as a function of the tested concentrations (on a logarithm scale). Statistical analysis was carried out using GraphPad Prism version 9.4.1 for Windows (GraphPad Software, San Diego, CA, USA, www.graphpad.com).
For orientation: Broth dilution looks for growth in wells or tubes with falling amounts of substance.

The test system of the next data set is S. aureus MRSA 1. Briefly: dose-response against clinical isolate MRSA 1. It counts as cell-based. The following applies: Staphylococcus aureus, mean [95% confidence interval]. The procedure: The antimicrobial activity of the compounds was assessed by a well-established broth microdilution procedure in microtiter plates and in compliance with the Clinical and laboratory Standard Institute (CLSI) guidelines (Clinical and Laboratory Standards Institute, Wayne, PA, USA). In short, microbial inocula were prepared at 0.5 McFarland in PBS and, subsequently, bacterial suspensions were diluted 1:200 in Mueller–Hinton broth (Sigma-Aldrich, St. Louis, MO, USA), while fungal inoculum was diluted 1:20 in RPMI-1640 medium (Gibco®, ThermoFisher Scientific Inc., Waltham, MA, USA), containing 2% glucose and 0.3% levo-glutamine buffered to pH 7.0 with 0.165 M 3-(N-morpholino)propanesulfonic acid (MOPS). A total of 100 µL of these microbial suspensions were introduced in a 96-well microplate and incubated with 100 µL of the compounds, two-fold serially diluted in the range of 100–0.19 µM. Positive controls (microbial suspensions in regular media), negative controls (only compounds), and solvent controls (microbial suspensions incubated with DMSO dilutions) were included in the tests. The plate was incubated at 37 °C for 24 h, and subsequently, the optical density at 630 nm (OD630nm) was spectrophotometrically measured. Each experiment was carried out with three technical replicates (i.e., three wells per sample) and repeated at least two times for statistical power. […]

The next data set deals with C. albicans ATCC 10231. Briefly: broth microdilution antimicrobial activity, C. albicans reference strain. It counts as cell-based, Candida albicans. The following applies: 100 μM, growth relative to positive control, mean ± SD. The method, then:
as §1, §2, §3

The test system of data set [1] is human red blood cells (hRBCs). Description: hemolytic assay. The settings on record: for Hemolytic activity, percentage values: mean ± SD. Format: cell-based. The procedure: The hemolytic activity of some selected compounds was evaluated as the amount of hemoglobin released by the disruption of human red blood cells (hRBCs). For the experiments, fresh hRBCs, obtained from peripheral blood of anonymous blood donors available for research purposes, were collected by centrifugation at 1500 g for 10 min, washed 3 times with PBS, and resuspended to a final concentration of 4% w/v hRBCs in PBS. Then, 100 µL of hRBCs suspension and an equal volume of the 2-fold dilutions of the […] were mixed in a 96-well plate and incubated for 1 h at 37 °C. […] Untreated hRBCs (incubated with PBS) and hRBCs incubated with 1% Triton X-100 were employed as negative and positive controls, respectively. The hemolysis percentage was calculated as [OD405nm (sample) − OD405nm (negative control)]/[OD405nm (positive control) − OD405nm (negative control)] × 100. Minimal hemolytic concentrations (MHCs) were defined as the compound concentrations causing 10% hemolysis.

Data set [2] concerns S. aureus ATCC 25923 biofilm. Briefly: antibiofilm activity, crystal violet staining. It counts as cell-based, Staphylococcus aureus. The following applies: 200–25 µM; inhibition of biofilm production; CV staining. The method, then:
For the evaluation of the bacterial biofilm formation, an established protocol with minor modifications was used. In short, a bacterial suspension of S. aureus ATCC 25923 was prepared in TSB (Tryptic Soy broth (TSB, Sigma-Aldrich, St. Louis, MO, USA) supplemented with 1% of glucose and adjusted to a final density of 10^5 CFU/mL. Aliquots of 100 µL of the culture were transferred to a 96-well flat-bottom polystyrene microplate, and then incubated at 37 °C for 90 min to promote bacterial adhesion. Thereafter, wells were slowly rinsed with PBS to remove non-attached cells, and 100 µL of medium containing the 2-fold serial dilutions of the compounds were added. After incubation at 37 °C for 24 h, the free-floating cells were removed, and the biofilms were carefully washed with PBS, and incubated for 1 h at 60 °C. Bacterial biomass was quantified by a standardized crystal violet (CV) staining. Briefly, 100 µL of CV solution (0.1% in water) were added to each well containing a completely air-dried biofilm, and incubated for 30 min at 37 °C. […] Finally, the colored supernatants were transferred to a new microplate and the OD550nm was read. The inhibitory effect of the compounds on biofilm production was evaluated in comparison to the positive control (S. aureus grown in absence of compounds), and negative control (only medium).

A further data set has as its system E. coli ATCC 25922. Briefly: broth microdilution antimicrobial activity, E. coli reference strain. The following applies: 100 μM, growth relative to positive control, mean ± SD. It counts as cell-based, Escherichia coli. The procedure:
as §1, §2, §3

In general, IC50 refers to the concentration at which inhibition is half-maximal. A lower IC50 goes with greater potency in that assay. Consider `O=C1Nc2cc(OC(F)(F)F)ccc2C1(c1c(Cl)nc2sccn12)c1c(Cl)nc2sccn12` [Compound 11, 3,3-bis(6-Chloroimidazo[2,1-b]thiazol-5-yl)-6-(trifluoromethoxy)indolin-2-one], for which, in the data set with S. aureus ATCC 25923 (CC50 Vero / IC50 S. aureus), the “SI (selectivity index, CC50/IC50)” value came out at 4.6. Moreover, the IC50 in the data set with S. aureus ATCC 25923 (Staphylococcus aureus, ATCC25923, S. aureus ATCC 25923, mean [95% confidence interval]) is 13.8 µM; in the data set with S. aureus MRSA 1, 21.4 µM. Besides, the “Microbial growth, C. albicans” value with C. albicans ATCC 10231 is recorded as “did not inhibit the growth”. Also, the activity at 100 µM with C. albicans ATCC 10231 (Candida albicans, ATCC10231, read-out: Microbial growth, C. albicans) was 108 ± 8.5%; in the data set with E. coli ATCC 25922 (Escherichia coli, ATCC25922, read-out: Microbial growth, E. coli) it was 108 ± 2.4%. Besides, the “Hemolytic activity, percentage values” in data set [1] (1.56 µM) is 0.9 ± 1.8%; in data set [1] (3.125 µM), 1.1 ± 1.2%; in data set [1] (6.25 µM) it was 2.3 ± 0.2%; in data set [1] (12.5 µM) it was 2.2 ± 0.5%; in data set [1] (25 µM), 1.8 ± 1.5%; in data set [1] (50 µM) it was 0.7 ± 1.5%. Also, in data set [1] (100 µM), the “Hemolytic activity, percentage values” was determined as 1.1 ± 0.4%. In addition, the hemolytic activity entry in data set [1] (range 100–1.56 µM) is “did not show an appreciable hemolytic activity; also recorded: no hemolytic property”. In data set [2], the “biofilm biomass compared to the untreated control” value was under 10%. For the same compound, the “Microbial growth, E. coli” value with E. coli ATCC 25922 is on record as “did not inhibit the growth”.
